Experimental data reported in ChEMBL document CHEMBL3872220, “Amphiphilic xanthones as a potent chemical entity of anti-mycobacterial agents with membrane-targeting properties” (Eur J Med Chem, 2016).
Values after ≈ are worked out from the molar mass of the structure shown.

Legend:
[1] = Oral bioavailability in Sprague-Dawley rat; type: ADME, organism-based; conditions: in vivo
[2] = Hemolytic activity against New Zealand white rabbit RBC assessed as hemoglobin release measured after 1 hr; type: ADME, cell-based, Oryctolagus cuniculus, Erythrocyte; conditions: red blood cells
[3] = system: Mycolicibacterium smegmatis; experiment: Antimycobacterial activity against Mycobacterium smegmatis MC2 155 after 24 hrs by broth dilution assay; type: functional; conditions: str. MC2 155, 24 h
[4] = system: Mycolicibacterium smegmatis; experiment: Antimycobacterial activity against Mycobacterium smegmatis MC2 155 assessed as inhibition of respiratory ATP synthesis by measuring ATP level at 4 times MIC measured after 1 hr by luciferase reporter gene assay (reference value: 90.6%); type: functional, str. MC2 155; set-up: scale not given: the % may be the effect or the level left
[5] = system: Mycolicibacterium smegmatis; experiment: Antimycobacterial activity against Mycobacterium smegmatis MC2 155 assessed as inhibition of respiratory ATP synthesis by measuring ATP level at 2 times MIC measured after 3 hrs by luciferase reporter gene assay (reference value: 158.3%); type: functional, str. MC2 155; set-up: scale not given: the % may be the effect or the level left
[6] = system: Mycolicibacterium smegmatis; experiment: Antimycobacterial activity against Mycobacterium smegmatis MC2 155 assessed as inhibition of respiratory ATP synthesis by measuring ATP level at 4 times MIC measured after 6 hrs by luciferase reporter gene assay (reference value: 152%); type: functional, str. MC2 155; set-up: scale not given: the % may be the effect or the level left
[7] = Cytotoxicity against human corneal fibroblasts assessed as reduction in ATP level measured after 4 hrs by Celltiter-Glo luminescent assay; type: toxicity, Corneal fibroblast
[8] = Cytotoxicity against human corneal fibroblasts assessed as increase in LDH level measured after 4 hrs by Cytotox-one […] assay; type: toxicity, Corneal fibroblast
[9] = Drug metabolism in rat liver microsomes at 1 uM preincubated for 5 mins followed by NADPH addition measured up to 30 mins by LC-MS/MS method; type: ADME; conditions: read-out: Drug metabolism
[10] = Half life in rat liver microsomes at 1 uM preincubated for 5 mins followed by NADPH addition measured by LC-MS/MS method; type: ADME
CYP3A4 = CYP3A4 (Homo sapiens, UniProt P08684); experiment: Inhibition of CYP3A4 in human liver microsomes at 10 uM using midazolam as substrate preincubated for 5 min followed by NADPH addition measured after 10 mins by LC-MS/MS method relative to control; type: ADME; conditions: probe midazolam
Sequence of CYP3A4 (P08684 whole entry): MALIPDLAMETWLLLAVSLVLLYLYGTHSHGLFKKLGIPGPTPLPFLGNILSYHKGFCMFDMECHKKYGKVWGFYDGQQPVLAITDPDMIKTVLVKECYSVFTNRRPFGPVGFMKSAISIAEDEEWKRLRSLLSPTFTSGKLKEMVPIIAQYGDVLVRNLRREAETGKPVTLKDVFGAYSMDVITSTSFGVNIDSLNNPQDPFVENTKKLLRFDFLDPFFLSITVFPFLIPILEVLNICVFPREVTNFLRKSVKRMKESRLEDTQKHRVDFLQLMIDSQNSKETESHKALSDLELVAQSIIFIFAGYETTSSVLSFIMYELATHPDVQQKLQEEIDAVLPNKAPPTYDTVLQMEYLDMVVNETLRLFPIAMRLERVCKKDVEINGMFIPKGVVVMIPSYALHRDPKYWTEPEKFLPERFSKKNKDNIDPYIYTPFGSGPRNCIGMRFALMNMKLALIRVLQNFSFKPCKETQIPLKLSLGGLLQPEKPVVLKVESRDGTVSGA

CYP2D6 = CYP2D6 (Homo sapiens, UniProt P10635); experiment: Inhibition of CYP2D6 in human liver microsomes at 10 uM using bufuralol as substrate preincubated for 5 min followed by NADPH addition measured after 10 mins by LC-MS/MS method relative to control; type: ADME; conditions: probe bufuralol
Sequence of CYP2D6 (P10635 whole entry): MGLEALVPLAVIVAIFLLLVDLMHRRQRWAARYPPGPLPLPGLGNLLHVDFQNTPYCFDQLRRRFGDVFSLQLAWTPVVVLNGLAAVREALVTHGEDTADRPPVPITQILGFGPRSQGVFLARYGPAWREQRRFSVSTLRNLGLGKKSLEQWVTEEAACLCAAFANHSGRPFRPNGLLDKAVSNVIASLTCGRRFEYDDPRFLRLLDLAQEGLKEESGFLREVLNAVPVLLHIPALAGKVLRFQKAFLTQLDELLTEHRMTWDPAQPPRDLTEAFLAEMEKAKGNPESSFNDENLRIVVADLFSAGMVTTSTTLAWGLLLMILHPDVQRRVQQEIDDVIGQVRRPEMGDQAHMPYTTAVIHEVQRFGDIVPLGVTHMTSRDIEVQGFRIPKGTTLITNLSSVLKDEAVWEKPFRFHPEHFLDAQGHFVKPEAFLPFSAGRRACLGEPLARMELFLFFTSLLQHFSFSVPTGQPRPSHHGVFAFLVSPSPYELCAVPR

CYP2C19 = CYP2C19 (Homo sapiens, UniProt P33261); experiment: Inhibition of CYP2C19 in human liver microsomes at 10 uM using omeprazole as substrate preincubated for 5 min followed by NADPH addition measured after 10 mins by LC-MS/MS method relative to control; type: ADME; conditions: probe omeprazole
Sequence of CYP2C19 (P33261 whole entry): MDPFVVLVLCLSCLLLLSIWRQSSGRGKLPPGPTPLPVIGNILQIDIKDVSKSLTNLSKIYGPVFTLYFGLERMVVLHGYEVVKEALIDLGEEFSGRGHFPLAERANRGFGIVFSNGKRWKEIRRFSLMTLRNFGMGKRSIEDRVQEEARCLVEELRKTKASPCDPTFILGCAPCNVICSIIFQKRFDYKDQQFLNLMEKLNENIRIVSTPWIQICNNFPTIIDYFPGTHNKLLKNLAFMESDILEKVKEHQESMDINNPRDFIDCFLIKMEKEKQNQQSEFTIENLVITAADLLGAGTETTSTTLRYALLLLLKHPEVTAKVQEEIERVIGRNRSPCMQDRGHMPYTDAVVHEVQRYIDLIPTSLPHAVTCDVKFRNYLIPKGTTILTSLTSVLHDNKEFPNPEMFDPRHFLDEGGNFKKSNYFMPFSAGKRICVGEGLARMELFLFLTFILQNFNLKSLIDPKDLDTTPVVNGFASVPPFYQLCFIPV

[11] = system: Mycolicibacterium smegmatis; experiment: Bactericidal activity against Mycobacterium smegmatis MC2 155 assessed as log reduction in bacterial colonies up to 8 times MIC measured after 24 hrs by time-kill assay; type: functional, str. MC2 155
[12] = system: Mycolicibacterium smegmatis; experiment: Antimycobacterial activity against Mycobacterium smegmatis MC2 155 assessed as inhibition of respiratory ATP synthesis by measuring ATP level at 4 times MIC measured after 6 hrs by luciferase reporter gene assay (reference value: 212.7%); type: functional, str. MC2 155; set-up: scale not given: the % may be the effect or the level left
[13] = system: Mycolicibacterium smegmatis; experiment: Antimycobacterial activity against Mycobacterium smegmatis MC2 155 assessed as inhibition of respiratory ATP synthesis by measuring ATP level at 800 ug/ml measured after 1 hr by luciferase reporter gene assay (reference value: 90.6%); type: functional, str. MC2 155; set-up: scale not given: the % may be the effect or the level left
[14] = system: Mycolicibacterium smegmatis; experiment: Antimycobacterial activity against Mycobacterium smegmatis MC2 155 assessed as inhibition of respiratory ATP synthesis by measuring ATP level at 800 ug/ml measured after 3 hrs by luciferase reporter gene assay (reference value: 158.3%); type: functional, str. MC2 155; set-up: scale not given: the % may be the effect or the level left
[15] = system: Mycolicibacterium smegmatis; experiment: Antimycobacterial activity against Mycobacterium smegmatis MC2 155 assessed as inhibition of respiratory ATP synthesis by measuring ATP level at 800 ug/ml measured after 6 hrs by luciferase reporter gene assay (reference value: 152%); type: functional, str. MC2 155; set-up: scale not given: the % may be the effect or the level left
[16] = system: Mycolicibacterium smegmatis; experiment: Antimycobacterial activity against Mycobacterium smegmatis MC2 155 assessed as inhibition of respiratory ATP synthesis by measuring ATP level at 800 ug/ml measured after 9 hrs by luciferase […] assay (reference value: 212.7%); type: functional, str. MC2 155; set-up: scale not given: the % may be the effect or the level left

Structure (SMILES): CO[C@H]1/C=C/O[C@@]2(C)Oc3c(C)c(O)c4c(c3C2=O)C2=NC3(CCN(CC(C)C)CC3)NC2=C(NC(=O)/C(C)=C\C=C\[C@H](C)[C@H](O)[C@@H](C)[C@@H](O)[C@@H](C)[C@H](OC(C)=O)[C@@H]1C)C4=O [RIFABUTIN]
- bioavailability [1]: 20%

Structure (SMILES): COc1c(OCCCCN2CCOCC2)cc2oc3cc(OCCCCN4CCOCC4)c(CC=C(C)C)c(OCCCCN4CCOCC4)c3c(=O)c2c1CC=C(C)C
- HC50 at 1 h [2]: > 240 µM
- MIC90 [3]: > 30 µM

Structure (SMILES): CCN(CC)CC(O)COc1cc2oc3cc(OCC(O)CN(CC)CC)c(OC)c(CC=C(C)C)c3c(=O)c2c(O)c1CC=C(C)C (stereo not drawn)
- HC50 at 1 h [2]: 108 µM
- MIC90 [3]: 6.4 µM (≈ 4.28 µg/mL)

Structure (SMILES): CO[C@H]1/C=C/O[C@@]2(C)Oc3c(C)c(O)c4c(O)c(c(/C=N/N5CCN(C)CC5)c(O)c4c3C2=O)NC(=O)/C(C)=C\C=C\[C@H](C)[C@H](O)[C@@H](C)[C@@H](O)[C@@H](C)[C@H](OC(C)=O)[C@@H]1C [RIFAMPIN]
- MIC90 [3]: 2.5 µM (≈ 2.06 µg/mL)
- Activity [4]: 123.4%
- Activity [5]: 95.6%
- Activity [6]: 66.5%

Structure (SMILES): CCN(CC)CCOc1cc2oc3cc(OCCN(CC)CC)c(OC)c(CC=C(C)C)c3c(=O)c2c(O)c1CC=C(C)C
- HC50 at 1 h [2]: > 328 µM
- MIC90 [3]: 3.2 µM (≈ 1.95 µg/mL)
- CC50 at 4 h [7]: 44.1 µM
- CC50 at 4 h [8]: 92.6 µM
- metabolised at 0.5 h, 1 µM [9]: 82.8%
- half-life at 1 µM [10]: 12 min
- inhibition at 10 min, 10 µM (CYP3A4): 20%
- inhibition at 10 min, 10 µM (CYP2D6): 28%
- inhibition at 10 min, 10 µM (CYP2C19): 16%

Structure (SMILES): NNC(=O)c1ccncc1 [ISONIAZID]
- MIC90 [3]: 15 µM (≈ 2.06 µg/mL)
- Activity [11]: 1.2

Structure (SMILES): COc1c(OCC(=O)NC(CCCNC(=N)N)C(N)=O)cc2oc3cc(OCC(=O)NC(CCCNC(=N)N)C(N)=O)c(CC=C(C)C)c(O)c3c(=O)c2c1CC=C(C)C (stereo not drawn)
- HC50 at 1 h [2]: 183 µM
- MIC90 [3]: > 30 µM
- CC50 at 4 h [7]: 60.1 µM
- CC50 at 4 h [8]: 119 µM
- metabolised at 0.5 h, 1 µM [9]: 14.4%
- half-life at 1 µM [10]: > 30 min
- inhibition at 10 min, 10 µM (CYP3A4): 42%
- inhibition at 10 min, 10 µM (CYP2D6): 2%
- inhibition at 10 min, 10 µM (CYP2C19): 3%

Structure (SMILES): CCN(CC)CCCCOc1cc2oc3cc(OCCCCN(CC)CC)c(OC)c(CCC(C)C)c3c(=O)c2c(O)c1CCC(C)C
- MIC90 [3]: 6.4 µM (≈ 4.28 µg/mL)

Structure (SMILES): COC(=O)C(Cc1cnc[nH]1)NC(=O)COc1cc2oc3cc(OCC(=O)NC(Cc4cnc[nH]4)C(=O)OC)c(OC)c(CC=C(C)C)c3c(=O)c2c(O)c1CC=C(C)C (stereo not drawn)
- HC50 at 1 h [2]: > 241 µM
- MIC90 [3]: > 30 µM

Structure (SMILES): CCN(CC)CCCOc1cc2oc3cc(OCCCN(CC)CC)c(OC)c(CC=C(C)C)c3c(=O)c2c(O)c1CC=C(C)C
- MIC90 [3]: 3.2 µM (≈ 2.04 µg/mL)

Structure (SMILES): CC[C@@H](CO)NCCN[C@@H](CC)CO [ETHAMBUTOL]
- MIC90 [3]: 1.25 µM (≈ 0.255 µg/mL)
- Activity [4]: 113.5%
- Activity [5]: 13.1%
- Activity [6]: 71.3%
- Activity [12]: 79.7%

Structure (SMILES): C(=NC1CCCCC1)=NC1CCCCC1 [DICYCLOHEXYLCARBODIIMIDE]
- Activity [13]: 7%
- Activity [14]: 6.7%
- Activity [15]: 11.1%
- Activity [16]: 13.3%

Structure (SMILES): O=C(CC(=O)C(F)(F)F)c1cccs1
- Activity [13]: 36.8%
- Activity [14]: 25.8%
- Activity [15]: 17.4%
- Activity [16]: 26.3%

Structure (SMILES): COc1c(OCCCCN2CCSCC2)cc2oc3cc(OCCCCN4CCSCC4)c(CC=C(C)C)c(O)c3c(=O)c2c1CC=C(C)C
- HC50 at 1 h [2]: > 276 µM
- MIC90 [3]: > 30 µM
